# According to patent US20230085945A1, “ORTHOGONAL SAFETY SWITCHES TO ELIMINATE GENETICALLY ENGINEERED CELLS” (The Board of Trustees of the Leland Stanford Junior …, priority 2020, published 2023):
# Experiments:
# [1] = test system: undifferentiated NANOG^iCasp9-YFP hPSCs; experiment: Clonal assay for surviving hPSC colonies after AP20187 treatment; assay type: cell-based, human; details: 1 nM AP20, 24-hour treatment; across 7 independent experiments
# Procedure: FIG. 3: Implementation of the NANOG^iCasp9-YFP safety switch. A) Schema depicting how drug AP20187 induces dimerization of Caspase9 in undifferentiated NANOG^iCasp9-YFP hESCs, subsequently triggering cell death (top left). NANOG^iCasp9-YFP hESCs were treated for 24 hours with increasing concentrations of AP20187. AP20187 was withdrawn, and cultures were further grown in mTeSR1 to allow any surviving hESCs to grow; any surviving colonies were counted 1 week later (top right). Alkaline phosphatase staining of whole wells of a 12-well plate after 24-hour treatment with AP20187 (bottom). […] Bioluminescent imaging of mice occurred weekly for 5 weeks with no transplant control (NTC) animals included for relative luminescence normalization. Total flux (photons/sec) was measured for each animal and averaged. […] The percentage of surviving cells was calculated relative to untreated controls. […]
# Clonal assay for surviving hPSC colonies—hPSCs were dissociated into single cells with Accutase (Thermo Fisher) and 1×10^6 cells were plated per well of a 6-well plate that was pre-coated with Matrigel. […] Subsequently, AP20187 was withdrawn altogether and hPSCs were cultured with mTeSR1 for 1 week, to allow any surviving hPSCs to regrow and to form clonal colonies, which were then scored (i.e., 1 surviving colony after AP20187 treatment of 1×10^6 hPSCs indicated survival of 1 out of 10^6 cells). […]
# [2] = test system: ACTB^OiCasp9-mPlum;NANOG^iCasp9-YFP hPSCs and differentiated liver, bone and neural progenitors; experiment: Killing of ACTB^OiCasp9-mPlum;NANOG^iCasp9-YFP hPSCs and differentiated derivatives by AP21 or AP20 (alamar blue); assay type: cell-based, human; details: dual-transgenic line; 1 nM, 24 hours
# Procedure: FIG. 6: Rationale, design and implementation of the ACTB^OiCasP9-mPlum safety switch. A) Intended application of the dual ACTB^OiCasp9-mPlum;NANOG^iCasp9-YFP safeguard. B) Cas9 RNP/AAV6-based knock-in strategy for ACTB^iCasp9-mPlum targeting, which was performed in the NANOG^iCasp9-YFP hESC line. C) 5×10^5 ACTB^OiCasp9-mPlum; NANOG^iCasp9-YFP hESCs were treated with control media or 1-1000 nM AP21967 for 24 hours. Cell viability was analyzed using alamar blue. D) ACTB^OiCasp9-mPlum;NANOG^iCasp9-YFP and ACTB^TK-mPlum; NANOG^iCasp9-YFP hESCs (negative control), in addition to their respective differentiated derivatives, were treated for 24 hours with 1 nM of AP21967. E) 5×10^5 ACTB^OiCasp9-mPlum; NANOG^iCasp9-YFP hESCs, and their respective differentiated derivatives, were treated with control media, 1 nM of AP21967 or and 1 nM of AP20187 for 24 hours. Surviving cells were analyzed by alamar blue. F) 10^6 ACTB^OiCasp9-mPlum;NANOG^iCasp9-YFP hESCs engineered to express CAG-AkaLuciferase were treated with control media or 1 nM AP20187 for 24 hours, and then subcutaneously transplanted into the right and left dorsal flanks of NOD-SCID Il2rg^−/− mice (10^6 cells per flank). 4 weeks post-transplant, teratomas formed and AP21967 was intraperitoneally administered once at 10 mg/kg. […] Total flux (photons/sec) was measured for each animal and was averaged.
compound,measurement,setting,value
CC[C@H](C(=O)N1CCCC[C@H]1C(=O)O[C@H](CCc1ccc(OC)c(OC)c1)c1cccc(OCC(=O)NCC(CNC(=O)COc2cccc([C@@H](CCc3ccc(OC)c(OC)c3)OC(=O)[C@@H]3CCCCN3C(=O)[C@@H](CC)c3cc(OC)c(OC)c(OC)c3)c2)CN(C)C)c1)c1cc(OC)c(OC)c(OC)c1 [AP20],depletion of undifferentiated hPSCs,[1],1.75×10^6 fold
same,killing of undifferentiated and differentiated cells,[2],selectively kill undifferentiated hPSCs
